# “Also recorded” adds a separate entry of the source. Where two headings read alike, the source gives them in different places.
# Assays:
# [1] = test system: inflammatory exudate (IE); experiment: foreign body (sponge) method in the rat: inflammatory exudate volume; type: in vivo; details: rat, oral, 10 mg/kg, 8 hours
# Method: (§1) These tests involved the use of 100 male CD strain rats (Charles River, Calco, LC, Italy) weighing 180±8 g. The animals were fasted for 12 hours (water ad libitum) before being used for the experiment.
# (§2) The inflammatory reaction with the formation of exudate was induced by using sterilized polyester sponges (4×1.5×0.5 cm) soaked in carrageen dissolved at a 2% concentration in sterile physiological solution. The rats were anesthetized lightly with ether and two sponges per rat were implanted subcutaneously in a previously shaven dorsal area.
# (§3) The sponges were removed 8 hours later after having sacrificed the animals by ether euthanasia, and immediately placed in large polyethylene 50 ml test tubes containing 10 ml of heparinized physiological solution. The test tubes were then subjected to centrifugation (1000 rotations; 15 minutes), followed by removal of the sponges and accurate measurement of the volume of the remaining fluid. Always using the Higgs et al. method, the acid lipids present in the fluid were extracted in chloroform with prior dilution in ethanol and acidification to pH 3. After complete evaporation of the chloroform, the remaining dry residue was dissolved in physiological solution and used for the immunoenzymatic assay of prostaglandin E2 (PGE2).
# (§4) All the other reagents used for the tests were purchased from Merck-Bracco (Milan, Italy).
# prostaglandin E2 (PGE2) = experiment: foreign body (sponge) method in the rat: PGE2 in the inflammatory exudate (immunoenzymatic assay); type: in vivo; details: rat, oral, 10 mg/kg, 8 hours
# Method: as §1, §2, §3, §4
# [2] = high quantities, intact and abraded skin, also long term; cited from earlier work
# [3] = 100 mg i.m., cited from earlier work
# [4] = Ketoprofen gel, cited from earlier work
# [5] = 100 mg i.m., approx. 3 hours before operation; cited from earlier work
# [6] = synovial fluid, 50 mg oral; cited from earlier work
# [7] = in vivo; cited from earlier work
# rat = details: cited from earlier work
# [8] = cited from earlier work
# carrageen edema = carrageen edema test in the rat (hind paw volume, plethysmometer); details: rat, oral
# [9] = once a day for three days, 12 hours
compound,measurement,setting,value
"CC(C(=O)O)c1cccc(C(=O)c2ccccc2)c1 (stereo not drawn) [Ketoprofen, 3-Benzoyl-α-methylbenzeneacetic acid]",% inhibition versus controls of IE,[1],58.6%
same,IE (inflammatory exudate) volume,"[1]; mean ± MSE, controls 5.15 ± 0.28",2.13 ± 0.15 mL
same,% inhibition versus controls of PGE2,prostaglandin E2 (PGE2),49.7%
same,PGE2 concentration in the inflammatory exudate,"prostaglandin E2 (PGE2); mean, controls 98.7 ± 4.7",49.6 ng/mL
same,tolerability / toxicity following dermal application,[2],excellent tolerability and lack of acute and chronic toxicity; also recorded: did not induce any local or general harm
same,penetration into the joints,[3]; 15 minutes,penetrates promptly into the joints
same,serum and synovial concentration at equilibrium,[3]; 3.5 hours,1.3 µg/mL
same,mean resident time in the joints vs serum,[3],about three times longer than that observed in serum
same,time of equilibrium of serum and synovial concentrations,[3],3.5 h
same,AUC of the free Ketoprofen fraction in serum,[3]; serum,127 ng·h/mL
same,time of maximum serum concentration,[3]; serum,30 min
same,AUC of the free Ketoprofen fraction in synovial fluid,[3]; synovial fluid,119 ng·h/mL
same,concentration when first detectable,"[4]; 2nd hour, matrix not stated",6.3 ng/mL
same,concentration in capsular tissue,[4]; [9],2.36 µg/g
same,concentration in intraarticular adipose tissue,[4]; [9],4.70 µg/g
same,concentration in synovial fluid,[4]; [9],1.31 µg/g
same,concentration in the joint vs systemic circulation,[4],greater active substance concentration in the joint than in systemic circulation
same,duration of constant values,[4],12 h
same,time to peak concentration,[4],after six hours
same,mean value in blood,[5],1.39 µg/g
same,mean value in bone,[5],0.25 µg/g
same,mean value in fat,[5],0.28 µg/g
same,mean value in muscle,[5],0.26 µg/g
same,mean value in synovial fluid,[5],0.85 µg/g
same,mean value in synovial membrane,[5],0.32 µg/g
same,time of synovial peak,[6],approximately two hours after the plasma peak
same,elimination with the feces,[7],1%
same,oral LD50,rat,165 mg/kg
same,time to peak concentration,[8]; intramuscular,≤ 30 min
same,"intraarticular concentrations vs serum and plasma, conclusion",[8]; various routes of administration,"reach peak levels later with respect to those observable in serum and plasma, but remain at higher levels than the latter for a longer period after treatment and always with higher values compared to those present in circulatory flow"
same,anti-inflammatory / anti-edematogenic effect,carrageen edema,also resulted as having anti-inflammatory activity
same,evolution of paw volume (delta in ml) at 1st hour,"carrageen edema; 10 mg/kg, 1st hour, mean ± MSE",0.19 ± 0.02 mL
same,evolution of paw volume (delta in ml) at 2nd hour,"carrageen edema; 10 mg/kg, 2nd hour, mean ± MSE",0.33 ± 0.03 mL
same,evolution of paw volume (delta in ml) at 3rd hour,"carrageen edema; 10 mg/kg, 3rd hour, mean ± MSE",0.41 ± 0.02 mL
same,evolution of paw volume (delta in ml) at 4th hour,"carrageen edema; 10 mg/kg, 4th hour, mean ± MSE",0.42 ± 0.02 mL
same,evolution of paw volume (delta in ml) at 5th hour,"carrageen edema; 10 mg/kg, 5th hour, mean ± MSE",0.40 ± 0.03 mL
same,evolution of paw volume (delta in ml) at 6th hour,"carrageen edema; 10 mg/kg, 6th hour, mean ± MSE",0.37 ± 0.03 mL
same,% inhibition vs controls (paw edema AUC),"carrageen edema; 10 mg/kg, p < 0.001",54.1%
same,AUC (mean ± MSE) of increase in paw volume,"carrageen edema; 10 mg/kg, paw volume (delta in ml) vs time (0 to 6 hours), controls 4.23 ± 0.26",1.94 ± 0.10

# Source: patent publication US6291527A (priority 1998, dated 2001)
